Experimental data reported in patent US4579866A, “Phenylacetamides as anti-allergy, anti-asthma and anti-inflammatory agents” (USV Pharmaceutical Corp., priority 1984, dated 1986).

Legend:
HUMAN 5 LIPOXYGENASE = biological target: T1, HUMAN 5 LIPOXYGENASE (Homo sapiens, UniProt P09917); test: Biosynthesis of 5-HETE by human polymorphonuclear leukocytes in vitro (inhibition of human 5-lipoxygenase); assay type: cell-based; conditions: human neutrophils, A23187, 3 minutes at 30° C.; concentration at which 50% inhibition is observed; read-out: INHIBITION OF HUMAN 5 LIPOXYGENASE, I50
T1 construct: A suspension of human neutrophils in buffer; endogenous in cells; host or cells: human neutrophils (PMNs) from venous blood of healthy volunteers
T1 sequence (P09917 1-674): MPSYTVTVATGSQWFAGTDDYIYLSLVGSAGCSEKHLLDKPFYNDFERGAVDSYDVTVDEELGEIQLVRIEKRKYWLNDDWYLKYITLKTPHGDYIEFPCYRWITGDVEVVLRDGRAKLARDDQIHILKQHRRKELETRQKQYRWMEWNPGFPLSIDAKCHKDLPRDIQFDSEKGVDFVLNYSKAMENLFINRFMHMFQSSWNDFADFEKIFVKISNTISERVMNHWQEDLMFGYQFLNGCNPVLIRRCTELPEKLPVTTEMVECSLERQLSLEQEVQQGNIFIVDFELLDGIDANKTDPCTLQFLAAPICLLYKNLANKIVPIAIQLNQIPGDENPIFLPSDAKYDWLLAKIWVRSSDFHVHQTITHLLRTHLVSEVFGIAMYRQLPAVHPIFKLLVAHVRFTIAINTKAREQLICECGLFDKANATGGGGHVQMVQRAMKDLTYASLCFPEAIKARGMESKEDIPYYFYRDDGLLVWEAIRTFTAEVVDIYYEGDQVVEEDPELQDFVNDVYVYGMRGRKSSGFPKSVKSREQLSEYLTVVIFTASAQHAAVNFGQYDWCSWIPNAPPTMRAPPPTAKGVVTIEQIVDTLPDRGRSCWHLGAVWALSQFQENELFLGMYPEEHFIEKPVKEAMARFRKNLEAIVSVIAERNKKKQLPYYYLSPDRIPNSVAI
Method: Protocol for the Biosynthesis of 5-HETE (5(S)-Hydroxyeicosatetraenoic Acid) by Human Polymorphonuclear Leukocytes In Vitro
(A) Isolation of Human Neutrophils
Freshly drawn venous blood from healthy human volunteers is mixed with 2 mM ethylenediamine tetraacetic acid, and is sedimented at 1×g over 6% dextran-saline. The leukocyte layer is aspirated, and the cells are concentrated by centrifugation and are layered over stacked Percoll® solutions, having densities of 1.072, 1.082 and 1.100, respectively. PMNs are isolated at the interface between the two densest layers after centrifugation at 400×g. Contaminating red blood cells are lysed by a short treatment of 0.16M ammonium chloride.
A suspension of human neutrophils in buffer is incubated for 3 minutes at 30° C. with (^14 C)-arachidonic acid (AA) and calcium ionophore A23187. Citric Acid (2M)/NDGA*(10 mM) is used to quench the reaction. Following the addition of a trace amount of (^3 H)-5-HETE together with an excess of unlabeled 5-HETE to each tube, the mixture is extracted with chloroform/methanol. The organic layer is washed with dilute hydrochloric acid and the total volume is transferred to glass tubes and dried in vacuo. The residue is dissolved in a small volume of chloroform and is spotted on silica gel TLC sheets, which are developed with an ethyl acetate/iso-octane/water/acetic acid solvent system (11/5/10/1 v/v). The 5-HETE spots are visualized under UV light, cut out and placed in scintillation vials for quantitation of radioactivity. After adjusting for the extraction efficiency, the amount (pmole) of (^14 C)-5-HETE in each of the tubes is calculated. The net pmoles of 5-HETE are obtained by subtracting the pmole of 5-HETE in the tubes containing buffer alone (blank) from the pmoles of 5-HETE in the tubes containing […]. The ability of the test compound to modulate the activity of this enzyme is determined by a decrease or increase in the net amount of 5-HETE produced. This assay is a modification of that described by Bach and Brashler for rat peritoneal cells: Bach, M., Brashler, J.: Ionophore A23187-Induced Production of SRS-A by Rat Peritoneal Cells In Vitro: Evidence for Production by Mononuclear Cells. J. Immunol. 120 998-1005 (1978).
*NDGA-nordihydroguaiaretic acid
(§1) If the percentage of inhibition exceeds 50%, the compounds are then evaluated in terms of response over a range of concentrations. From a plot of response against concentration, the I50 value is obtained. The I50 value is the concentration at which 50% inhibition is observed.

LTC4 = test: Antagonism of leukotriene C4 binding (guinea pig peripheral lung strips, contraction); assay type: cell-based; conditions: Cavia porcellus, leukotriene C4 usually 0.2 nM, 37° C., read-out: ANTAGONISM OF LTC4 BINDING, I50
Method: Protocol for Antagonism of Leukotrines C-4 Binding
Peripheral strips of guinea pig lungs are prepared and hung in tissue baths according to the procedure described by Drazen et al. (Proc. Nat'l. Acad. Sci., U.S.A. 77, 4354-4358, 1980). Male guinea pigs (Charles River, 250-400 g) are sacrificed by cervical dislocation and their lungs rapidly removed. The individual lobes are dissected free and rinsed in Assay Buffer (118 mM NaCl, 5.4 mM KCl, 2.5 mM CaCl2, 25 mM […], 1 mM MgSO4, 1 mM NaH2 PO4, 11 mM glucose) which is continuously aerated with 95% oxygen/5% carbon dioxide. After the lobes are extensively rinsed, a strip of lung tissue, approximately 2 mm thick and 5-8 cm long, is cut off the sharpest and most peripheral portion of each lobe. The peripheral edge is cut almost completely around the outside of the lobe so that a U-shaped strip is obtained. These strips are rinsed in Assay Buffer and then connected with surgical silk thread to the support rods of the water jacketed tissue baths (10 ml chambers). The other ends of the strips are connected to Gould UC3 pressure transducers which had been previously calibrated. The tissue baths are aerated with 95% oxygen/5% carbon dioxide and maintained at 37° C. The tension on these strips are adjusted to 500 mg. The tissues are initially washed with fresh buffer every 5-10 minutes for about 30 minutes and thereafter washed with fresh assay buffer at least every 20 minutes.
After the tissue had been repeatedly washed and allowed to equilibrate in the tissue baths, they are challenged with 1 μM histamine to standardize the contractions for each tissue.
Responses of each tissue to a predetermined concentration (usually 0.2 nM) of leukotriene C4 are then obtained. Compounds are then tested for their ability to antagonize to leukotriene C4 immediately upon challenge.
as §1

IC50 (HUMAN 5 LIPOXYGENASE) | IC50 (LTC4) | Compound
10 µM | 5 µM | CN(CC(O)c1ccccc1)C(=O)Cc1ccc(OCCc2ccccc2)c(Cl)c1 (centres unmarked) [N--[3-Chloro-4-phenylethyloxyphenylacetyl]-N--methyl-2-hydroxy-2-phenyl-ethyl-amine]
2 µM | 3 µM | C=CCOc1ccc(CC(=O)N(C)CCc2ccccc2)cc1Cl [N--[4-Alloyoxy-3-chlorophenylacetyl]-N--methyl-2-phenylethylamine]
6 µM | 9 µM | CCCOc1ccc(CC(=O)N[C@H](Cc2ccccc2)C(=O)OC)cc1Cl [3-Chloro-4-n-propyloxyphenylacetyl-D-phenylalanine methyl ester]
1.5 µM | 12 µM | C#CCOc1ccc(CC(=O)N[C@H](Cc2ccccc2)C(=O)OC)cc1Cl [3-Chloro-4-propargyloxyphenylacetyl-D-phenylalanine methyl ester]
